Data from patent US20130337014A1 (priority 2008, published 2013).

System: Clostridium perfringens
Format: in vivo, broiler chickens (Cobb X Cobb)
Details: CP challenged

## CC[C@@H](C(=O)[C@@H](C)[C@@H](O)[C@H](C)[C@@H]1O[C@@H]([C@@H](CC)C(=O)O)CC[C@@H]1C)[C@H]1O[C@]2(C=C[C@@H](O)[C@]3(CC[C@@](C)([C@H]4CC[C@](O)(CC)[C@H](C)O4)O3)O2)[C@H](C)C[C@@H]1C [S, salinomycin]
Day 22, 0 to 3 score
  Necrotic Enteritis Lesion Score: 0.10
Days 0 to 21
  Average Weight Gain (kg) Days 0 to 21: .592 kg
  Feed Conversion Ratio (feed to gain ratio) Days 0 to 21: 1.550
Days 0 to 42
  Feed Conversion Ratio (feed to gain ratio) Days 0 to 42: 1.914
  Mortality (%) All Causes Days 0 to 42: 4.67%
  Mortality (%) Necrotic Enteritis Days 0 to 42: 1.33%
Days 21 to 42
  Feed Conversion Ratio (feed to gain ratio) Days 21 to 42: 2.126
